Measured values: patent US9597407B2, “Targeted antimicrobial moieties” (C3 Jian, Inc., priority 2009, dated 2017)
Entries after “also recorded” stand apart in the source; their conditions may differ.

Key:
bacteria = assay: Binding of targeting peptides to microorganisms (Table 3); conditions: preferably 1x PBS
microorganisms = assay: Morphology, biofilm and growth disruption by peptides (Table 5); format: cell-based; parameters: key: A: Peptide aggregates; B: Less hyphal formation; Clumps; Diffuse clumps and small polyps; F: Diffuse growth; H: Thin; I: Growth inhibition; Microcolony formation; Rippled; Small polyps; Thick; W: Halo formation on top, microlonies on bottom
Description: In certain embodiments peptides that induce alterations in phenotype or other biological activities can also be used as antimicrobial effector moieties.

[1] = microorganism the targeting peptide binds, binding in aqueous buffers that varied with peptide solubility
[2] = microorganism bound by the targeting peptide, binding in aqueous buffers chosen by peptide solubility

Row | Substance | Target(s) (bacteria; [1]) | Organism, effect (microorganisms; C. jeikeium) | Organism, effect (microorganisms; M. luteus) | Organism, effect (microorganisms; MRSA) | Organism, effect (microorganisms; S. epidermidis) | Organism, effect (microorganisms; B. subtilis) | Organism, effect (microorganisms; C. jejuni) | Target(s) (bacteria; [2]) | Organism, effect (microorganisms; P. aeruginosa)
1 | PF-003 (chain 1 MNNWIKVAQISVTVINEVIDIMKEKQNGGK; chain 2 MNNWIKVAQISVTVINEVIDIMKEKQNGGK; Peptide with targeting and/or antimicrobial activity) | S. epidermidis and M. luteus and P. mirabilis and C. albicans and MRSA and C. jeikeium | C. jeikeium (A) | M. luteus (A) | MRSA (R) | S. epidermidis (D) | – | – | – | –
2 | PF-008 (chain 1 MIEIGSIAYLNGGSKKYNHILNQENR; chain 2 MIEIGSIAYLNGGSKKYNHILNQENR; Peptide with targeting and/or antimicrobial activity) | S. epidermidis and M. luteus and MRSA and C. jejuni | – | – | – | – | B. subtilis (D) | C. jejuni (R) | – | –
3 | PF-009 (chain 1 SKKYNHILNQENR; chain 2 SKKYNHILNQENR; Peptide with targeting and/or antimicrobial activity) | M. luteus; also recorded: P. mirabilis; also recorded: C. albicans | – | – | – | S. epidermidis (S) | – | – | – | –
4 | PF-010 (chain 1 MDIDVNKLLQAFVYFKSFEKLRHNNS; chain 2 MDIDVNKLLQAFVYFKSFEKLRHNNS; Peptide with targeting and/or antimicrobial activity) | S. epidermidis; also recorded: M. luteus; also recorded: E. coli; also recorded: C. albicans | C. jeikeium (A) | M. luteus (A) | MRSA (R) | S. epidermidis (S) | – | – | – | –
5 | PF-065 (LEKNTRDNYFIHAIDRIYINTSKGLFPESELVAWG; Peptide with targeting and/or antimicrobial activity) | M. luteus and E. coli and P. aeruginosa and C. albicans and MRSA and S. pneumoniae and C. jeikeium and C. jejuni | C. jeikeium (A) | – | MRSA (R) | S. epidermidis (D) | – | – | – | –
6 | PF-069 (FDPVPLKKDKSASKHSHKHNH; Peptide with targeting and/or antimicrobial activity) | E. faecalis; also recorded: C. jejuni | – | – | – | – | B. subtilis (D) | C. jejuni (R) | – | –
7 | PF-070 (SMVKSEIVDLLNGEDNDD; Peptide with targeting and/or antimicrobial activity) | S. epidermidis; also recorded: C. jejuni | – | – | – | – | B. subtilis (D) | – | – | –
8 | PF-074 (RDIHPIYFMTKD; Peptide with targeting and/or antimicrobial activity) | – | – | – | MRSA (M) | S. epidermidis (D) | – | – | S. epidermidis and M. luteus and MRSA | –
9 | PF-099 (EIIAYLEGRFANA; Peptide with targeting and/or antimicrobial activity) | – | C. jeikeium (C) | – | – | S. epidermidis (D) | – | – | S. epidermidis; also recorded: M. luteus; also recorded: E. coli; also recorded: C. jeikeium | –
10 | PF-123 (TTRPQVAEDRQLDDALKETFPASDPISP; Peptide with targeting and/or antimicrobial activity) | – | – | – | – | S. epidermidis (M) | – | – | M. luteus; also recorded: E. coli | –
11 | PF-128 (GIKVVAARFEEIQFSENFDSIILA; Peptide with targeting and/or antimicrobial activity) | – | – | – | – | S. epidermidis (D) | – | – | M. luteus; also recorded: P. aeruginosa; also recorded: E. faecalis | P. aeruginosa (C)
